Test system: C. difficile infection
Assay: Anecdotal treatment of patients with C. difficile infection
Format: in vivo, human
Details: patient, second presentation
Description: A patient was suffering severe symptoms of C. difficile infection, in spite of narrow-spectrum antibiotic treatment, for a period of approximately three months. The treatment protocol was then modified to include, additionally, the oral administration of cranberry puree and GOS at least once daily.
A further patient, presenting for the second time with symptoms of c. difficile was treated initially with metronidazole and then, subsequently, with vancomycin. […] At the point of administration of a mixture of galacto-oligosaccharide and cranberry puree the patient was recording 16 episodes of open bowel in a 24 hour period, was suffering from severe dehydration and was causing significant concern that death might imminently result.

| SMILES | effect of antibiotic treatment on symptoms of c. difficile |
| --- | --- |
| Cc1ncc([N+](=O)[O-])n1CCO [metronidazole] | Neither treatment was having any effect |
| CN[C@H](CC(C)C)C(=O)N[C@H]1C(=O)N[C@@H](CC(N)=O)C(=O)N[C@H]2C(=O)N[C@H]3C(=O)N[C@H](C(=O)N[C@H](C(=O)O)c4cc(O)cc(O)c4-c4cc3ccc4O)[C@H](O)c3ccc(c(Cl)c3)Oc3cc2cc(c3O[C@@H]2O[C@H](CO)[C@@H](O)[C@H](O)[C@H]2O[C@H]2C[C@](C)(N)[C@H](O)[C@H](C)O2)Oc2ccc(cc2Cl)[C@H]1O [vancomycin] | Neither treatment was having any effect |

— patent publication US20130071368A1, “PREPARATION, USE OF PREPARATION FOR TREATMENT, AND METHOD OF TREATMENT OF INTESTINAL INFECTION” (FAYREFIELD FOODS LIMITED, priority 2007, published 2013)
